Entries after “also recorded” stand apart in the source; their conditions may differ.
What was measured:
[1] = test system: acetylated alpha tubulin, HeLa; assay: Immunoblot of acetylated alpha tubulin in HeLa cells; assay type: cell-based, human; details: Forskolin (10 μM), 45 min, immunoblot normalized with GAPDH
Experimental: (§1) Human embryonic kidney cells, HEK293T, human cervical carcinoma cells, HeLa, human breast cancer cells, MDA-MB 231, human lung adenocarcinoma cellsA549, chronic myeloid leukemia cells, K562, and human colon cancer cells, HCT11, were obtained from National Centre for Cell Sciences (NCCS), Pune, India. Cell line authentication by STR analysis was performed for 10 genetic loci for all the cell lines by Life code, Genomic technologies Pvt. Ltd., and tested for mycoplasma negative by performing PCR (mycoplasma specific genes) using EZdetect PCR kit for mycoplasma detection (CCK009). All the cells were cultured in high glucose DMEM medium containing 10% foetal bovine serum and 1% Penicillin/streptomycin (Himedia). Cells were seeded in 60 mm dishes and upon attaining 80–90% confluency, treatment was given with PCI-34051(Cayman Chemicals) (10 μM/20 μM) and tubastatin (5 μM) for 24 h or both in combination (PCI-34051 and Tubastatin) and Forskolin (Sigma) (10 μM) for 45 min independently along with untreated control as described earlier.
(§2) Total, cytoplasmic and nuclear fractions of HeLa or HEK 293 T cells treated with or without PCI-34051 (20 μM), [12] tubastatin (5 μM) and/or forskolin (10 μM) were prepared as described previously. Total protein samples of HEK 293 T, HeLa, MDAMB 231, K562, A549 and HCT11 cells / immunoprecipitated HDAC8 and HDAC6 samples from both HeLa and HEK 293 T lysates / HDAC8 siRNA transfected HEK 293 T and HeLa lysates were also prepared. The proteins were separated on 10 or 12% SDS-PAGE, transferred on to nitrocellulose membrane and probed with primary antibodies of HDAC8, Beta actin, Alpha tubulin, anti-acetylated alpha tubulin, HDAC6 and GAPDH. The bands were visualized using chemiluminiscence after probing with HRP-conjugated secondary antibody.
(§3) Source for siRNA oligonucleotides were considered from with sequence, HDAC8 Sense: […] and Anti-sense: […]. The oligonucleotides were converted into siRNA by following standard protocol as described earlier. HeLa and HEK 293 T cells were transfected with HDAC8 siRNA (10–15 μg/100 mm dish) using lipofectamine 2000 (Invitrogen), and considering untransfected as control. Cells were harvested after 72 h of post-transfection and processed for total RNA and protein isolation.

HDAC8 [2] = assay: Immunofluorescence / confocal localization of HDAC8 in HeLa and HEK 293 T cells; assay type: cell-based, human; details: Forskolin (10 μM), 45 min
Experimental: as §1
HeLa and HEK 293 T cells (Control, Forskolin, PCI-34051 (20 μM) treated) were fixed with 4% formaldehyde in PBS for 20 min at RT followed by permeabilization with 0.25% TritonX-100 in PBS. […]

HDAC8 [3] = assay: HDAC8 FLUOR DE LYS fluorometric enzyme activity assay on immunoprecipitated HDAC8 fractions; assay type: biochemical, human; details: Forskolin (10 μM); for HDAC8 enzyme activity, nuclear fraction: immunoprecipitated nuclear fraction (5 μg), vs untreated
Experimental: HDAC8 enzyme activity assay was performed using HDAC8 FLUOR DE LYS fluorometric assay kit (Cat# BML-AK518–0001) for Control, PCI-34051(10 μM), Forskolin (10 μM), Tubastatin (5 μM) - treated and immunoprecipitated samples of either total, cytoplasmic and nuclear fractions of HeLa and HEK 293 T cells using anti-HDAC8 antibody and anti-HDAC6 (2 μg antibody for ~ 500 μg) according to the manufacturer’s protocol.

[4] = test system: acetylated alpha tubulin, HEK 293 T; assay: Immunoblot of acetylated alpha tubulin in HEK 293 T cells; assay type: cell-based, human; details: HEK 293 T, Forskolin (10 μM), 45 min, immunoblot normalized with GAPDH
Experimental: as §1, §2, §3

HDAC8 [5] = details: by phosphorylation (PKA); cited from earlier work
Text: The cytoplasmic localization of HDAC8 was further confirmed by immunoblot analysis using total, cytoplasmic and nuclear protein fractions of HEK 293 T and HeLa (Fig. 1d). […] With forskolin treatment, there was significant inc ... || In silico and spectroscopy based results have confirmed the interaction of HDAC8 with alpha tubulin & acetylated alpha tubulin peptide. To further validate the functional interaction we carried out IP and co-IP experiments with HDAC8 and acetylated alpha tubulin (ac-tubulin) antibodies. […] Densitometry results for the fold expression ...

tubulin polymerization = details: cited from earlier work
Text: Tubulins are one of the major cytoskeletal proteins and consists of alpha, beta and gamma tubulin proteins in the family. Acetylated alpha tubulin is known to stabilize microtubules and effect intracellular transport, cell migration and primary determinant for cell morphology. HDAC8 inhibition impedes the migration property in HeLa in turn affecting the morphology.

HeLa cells [6] = assay: Cell migration (wound) assay in HeLa cells; assay type: cell-based, human; details: PCI-34051 (10 μM) or Paclitaxel (10 μM), 24 and 48 h
Experimental: HeLa cells are grown in 6 well plates in duplicates till it attains 90% confluency and starved with serum free media for overnight. Using a sterile 200 μl tip wound is created by drawing straight lines at three different points in each well. Detached cells are aspirated and washed three times with 1XPBS. Cells are treated with PCI-34051 (10 μM & 20 μM) and Paclitaxel (10 μM & 20 μM) dissolved in 2% FBS respectively along with control (untreated). Migrated cells into the wound were examined by capturing images using Olympus CKX41, ProgRes CT3 phase contrast microscope after 24 and 48 h.

HeLa cells [7] = assay: Cell morphology analysis, HeLa; assay type: cell-based, human; details: HeLa, 20 μM, 24 & 48 h, vs control
Experimental: (§4) HeLa and HEK 293 T cells are cultured in 6 well plates till attaining 70% confluency. Cells are starved for 12 h without serum and treated with PCI-34051 (20 μM) and Paclitaxel (20 μM) along with untreated control for 24 & 48 h. Examined difference in the morphology was captured by Olympus CKX41, ProgRes CT3 phase contrast microscope at 10X focussed lens.

HEK 293 T cells = assay: Cell morphology analysis, HEK 293 T; assay type: cell-based, human; details: 20 μM, 24 & 48 h, vs control
Experimental: as §4

## C=C[C@@]1(C)CC(=O)[C@]2(O)[C@@]3(C)[C@@H](O)CCC(C)(C)[C@@H]3[C@H](O)[C@H](OC(C)=O)[C@@]2(C)O1 [Forskolin]
[1]
  levels of acetylated alpha tubulin: ac-alpha tubulin levels increase
[1]; listed as forskolin
  levels of acetylated alpha tubulin: increased significantly; also recorded: significant increase of acetylated tubulin expression
HDAC8 [2]
  localization of HDAC8: no difference in localization of HDAC8
HDAC8 [3]; HeLa and HEK 293 T, cytoplasmic fraction (5 μg)
  cytoplasmic HDAC8 activity: decreased
HDAC8 [3]; HeLa and HEK 293 T, nuclear fraction (5 μg)
  nuclear HDAC8 enzyme activity (discussion statement): increased
HDAC8 [3]; HEK 293 T
  HDAC8 enzyme activity, nuclear fraction: significant increase in the nuclear fraction
HDAC8 [3]; HeLa
  HDAC8 enzyme activity, nuclear fraction: significant increase in the nuclear fraction
[4]
  levels of acetylated alpha tubulin: ac-alpha tubulin levels increase
[4]; listed as forskolin
  levels of acetylated alpha tubulin: increased significantly
HDAC8 [5]
  effect on HDAC8: known to inactivate HDAC8 by phosphorylation

## CC(=O)O[C@H]1C(=O)[C@@]2(C)[C@H]([C@H](OC(=O)c3ccccc3)[C@]3(O)C[C@H](OC(=O)[C@H](O)[C@@H](NC(=O)c4ccccc4)c4ccccc4)C(C)=C1C3(C)C)[C@]1(OC(C)=O)CO[C@@H]1C[C@@H]2O [Paclitaxel]
Tubulin polymerization
  consequence of inhibition of tubulin polymerization: cell-cycle arrest and cell death
HeLa cells [6]
  migration efficiency (rank order): Control> > Paclitaxel>PCI-34051
HeLa cells [7]
  cell morphology (cell size): reduced (shrinking) cell size; also recorded: decreased cell size (shrinking)
HEK 293 T cells
  cell morphology (aggregation / clump formation): clump formation; also recorded: cell aggregation
